Results published in patent US20130274834A1, “Method for the treatment of skin tissues” (priority 2006, published 2013).
“And” between values parts separate entries of the source, which are not always exact repeats. Identical values can stand only once. “Also recorded” adds a separate entry of the source.

Experiments:
Type in all cases: in vivo, human
[1] = test system: facial papulo-pustular inflammatory acne lesions; assay: Split-face radiant IR skin preparation prior to PDT for inflammatory type acne of the face (Example 6); conditions: untreated side (no IR); one month later
Experimental: A person was treated for facial papulo-pustular inflammatory acne lesions. After performing an acetone scrub on the treatment area, a radiant IR skin preparation was done on the right side of their face (970 nm, 80 mW/cm2, for 30 min). Then 5-aminolevulinic acid (Levulan™ Kerastick™) was applied to the skin and left for 90 min incubation time. […] Radiant IR skin preparation allows for a reduction in the number of PDT treatments necessary for significant clinical improvements.

cystic acne lesions = assay: Split face or split back pre-PDT radiant IR study, eleven cystic acne patients (Example 7); conditions: one month after PDT; IR 970 nm 50 mW/cm2 15 min prior to 5-ALA; most patients
Experimental: Study Design/Materials and Methods: Eleven (11) patients were enrolled in a split face or split back (pre-treated side versus control) study with a pre-approved IRB protocol. […] Lesion count was assessed both manually and by digital photography before and 4 weeks after one PDT procedure. Prior to the application of 5-ALA, one side of the face or back was pre-treated with radiant IR [CW LEDs emitting @ λ970 nm, irradiance 50 mW/cm2 for 15 minutes, total fluence 45 J/cm2], while the other half was used as control. PDT was then performed on the entire surface (face or back).

[2] = test system: inflammatory acne lesions; assay: Randomized, controlled, rater-blinded split face/back trial of IR pre-treatment plus ALA-PDT in inflammatory acne (Example 9); design: key to Clinical Global Severity Assessment at Week-4, Median: 0: Clear; 1: Almost clear; 2: Mild; 3: Moderate; 4: Severe; 5: Very Severe; conditions: for Clinical Global Severity Assessment at Week-4, Median: six-point rating scale, grade 0-5; for Change from Baseline in Lesion Counts, Total Inflammatory lesions, Median (reduction): week-4 (one month after PDT)
Experimental: One side was pre-treated for 15 minutes with radiant IR light emitting diode (LED) (970 nm), while the other side was used as control. ALA was then applied after which PDT LED (630 nm) was performed on the entire face or back surface. Blinded lesion counts and clinical global assessment of severity were performed based on digital photographs before and four weeks after the PDT procedure.
Inclusion criteria included patients with skin type I to III according to the Fitzpatrick Classification System [^xxviii]. Exclusion criteria comprised patients taking cortisone (Prednisone), anticoagulant therapy, or any drug known to increase photosensitivity. In addition, during the 12 months preceding the study, patients were required not to have used isotretinoin (Accutane), or applied topical steroids on the site to be treated. Moreover, oral antibiotics use, laser or topical anti-acne medication at the to-be-treated site were not permitted for eight weeks prior to the study. Patients gave written informed consent to participate in this trial in compliance with the US Code of Federal Regulations dealing with the conduct of clinical studies (21 CFR including parts 50 and 56 concerning informed consent and IRB regulations). The study was conducted according to Good Clinical Practice Guidelines and the principles of the Declaration of Helsinki, and was approved by the Institutional Review Board Services (Div. 1373737 Toronto, Canada).
Patients were assigned to a split face or split back group to allow for within-patient assessments of clinical effects. Assignment was based on the patient's problem area. One side was randomly (using a coin flip) assigned to receive IR pre-treatment and ALA-PDT, and the other ALA-PDT alone to serve as control. The IR pre-treatment consisted of a 15 minute exposure to radiant IR LED at 970 nm ([…] using the LumiPhase-R/IR™, OPUSMED Inc. Montreal, Canada) to reach peak H2O absorption inside-out temperature of 45° C. Papillary dermis temperature was monitored with a needle probe throughout the session and up to 40 minutes (Type-T thermocouple, Omega, Montreal, Canada). ALA (20% Levulan Kerastick, DUSA Pharmaceuticals, USA) was then applied on both sides for 60 minutes, after which PDT with LED at 630 nm (50 mW/cm^2, 70 J/cm^2) was performed on the entire face or back surface for a duration of 23 minutes (LumiPhase-R/B™, OPUSMED Inc. Montreal, Canada). No cooling method was used. Digital photographs (Canon Dual Flash EOS 10D, Canon, Tokyo, Japan with EX SIGMA 50 mm 1:2.8 macro lens, Sigma, Aizu, Japan) were taken prior to and four weeks after the procedure. Each photograph was taken maintaining identical ambient lighting, pose and camera angles.
Acne lesion counts were performed before and four weeks after the PDT treatment. All types of inflammatory (papules, pustules, nodules) and noninflammatory (open and closed comedones) acne lesions were counted. Lesion counts were performed based on the digital photographs by two non-treating physicians who were blinded to the treatment regimen (IR-treated or control side) and to the timing of the photographs (baseline or post-treatment).
The global severity of acne was assessed at the end of the study by the […] non-treating physicians, as described above, using a six-point rating scale (Table 1). Clinical success was defined by grades 0 (clear) or 1 (almost clear).
Adverse reactions were monitored throughout the study. Signs of erythema, oedema, scaling/crusting, bronzing, textural changes, hyperpigmentation, and hypopigmentation were documented during the time period of the clinical trial.
Cronbach's alpha was calculated to assess inter-rater reliability in assessments. Reliability was deemed acceptable if Cronbach alpha was ≧7 allowing raters' assessments to be combined for analysis. The primary outcome variable was the percent change from baseline in inflammatory lesion count measured four weeks post-treatment. […]

time to disappearance of slight erythema post-PDT ([2]; most patients): ≤ 48 h
SMILES: NCC(=O)CCC(=O)O [5-aminolevulinic acid]
PDT sessions needed for similar results [1]: needed an additional PDT session
number of cystic lesions, pre-treated versus control side (cystic acne lesions): statistically significant decrease
tolerability of the treatment ([2]; ALA-PDT with LED 630 nm, with or without IR pre-treatment, listed as ALA): overall well tolerated; also recorded: well tolerated with no significant adverse events
treatment-related adverse effects ([2]; ALA-PDT with or without IR pre-treatment): No unusual treatment-related adverse effects were observed
Clinical Global Severity Assessment at Week-4, Median ([2]; Control side (ALA-PDT alone)): 2
Change from Baseline in Lesion Counts, Total Inflammatory lesions, Median (reduction) ([2]; Control side (ALA-PDT alone), listed as ALA): 38% and 37.86%
Clinical Global Severity Assessment at Week-4, Median ([2]; IR-Treated side): 1
Change from Baseline in Lesion Counts, Total Inflammatory lesions, Median (reduction) ([2]; IR-Treated side, listed as ALA): 73% and 73.21%
additional benefit of IR-treated side in reduction of inflammatory lesion count ([2]; IR-treated versus control side, week-4): 35%
